Data from US20220289678A1, “COMPOUND, POLYMER, AND ORGANIC MATERIAL, AND OPTICAL APPARATUS, OPTICAL PART, AND IMAGE DISPLAY APPARATUS USING THE ORGANIC MATERIAL” (Sony Group Corporation, priority 2019, published 2022).
Like-named read-outs stand apart in the source and are kept apart here.

What was measured:
[1] = Refractive index of compound, Abbe refractometer, calibration curve extrapolated; assay type: physicochemical; settings: for Refractive index compared with compound (11-1) according to Test Example 15: comparison in words; for Refractive index: average refractive index to light of 589 nm, 25±1° C., acetone or chloroform solution, extrapolated to volume fraction 1
Protocol: Note that the refractive index can be measured by a critical angle method or a spectroscopic ellipsometry method. For example, in the critical angle method, measurement can be performed using an Abbe refractometer ER-1 manufactured by ERMA INC (measurement wavelengths are measured in visible light areas using 486 nm, 589 nm, 656 nm, and the like).
(§1) An acetone solution or a chloroform solution of each of the compounds according to Test Examples 1 to 15 was prepared, and the average refractive index to light of 589 nm at room temperature of 25±1° C. was measured by an Abbe refractometer (manufactured by ERMA INC., ER-1), and plotted against the volume fraction of each compound to prepare a calibration curve. Note that as the density of each compound, a value determined by a dry densitometer (AccuPyc II 1340-10CC (manufactured by Shimadzu Corporation)) was used. The calibration curve was extrapolated, and the refractive index when the volume fraction of each compound became 1 was used as the refractive index of each compound. The measurement results of the refractive index and density (g/cm^3) of each of the compounds according to Test Examples 1 to 15 are shown in Table 1 below.

[2] = Density by dry densitometer; assay type: physicochemical; settings: dry densitometer AccuPyc II 1340-10CC
Protocol: as §1

[3] = Solubility in organic solvent, visual dissolution; assay type: physicochemical; settings: ultrasonic stirring
Protocol: 20 mg of each of the compounds according to Test Examples 1 to 15 was weighed into a vial bottle, acetone was added to make a total amount of […], and then, the mixture was stirred with ultrasonic waves for 30 seconds. In the case where there was an undissolved product by visual recognition, a small amount of acetone was added thereto, and the mixture was stirred for another 30 seconds. The task described above was repeated, and the solubility was calculated from the total amount of solvents when all were dissolved.

[4] = commercial product, Osaka Gas Chemical Co., Ltd.; cited from earlier work

| Density [2] | Solubility Acetone [3] | Solubility Chloroform [3] | Refractive index [1] | Compound | Refractive index compared with compound (11-1) according to Test Example 15 [1] | Refractive index [4] |
| --- | --- | --- | --- | --- | --- | --- |
| 1.22 g/mL |  |  |  | C=CC(=O)OCCn1c2ccc3ccccc3c2c2c3ccccc3ccc21 [(6-3)] | higher than the refractive index of the compound (11-1) |  |
| 1.3 g/mL | 5 wt % | 17 wt % |  | C=CC(=O)Oc1cc(Cn2c3ccc4ccccc4c3c3c4ccccc4ccc32)cc(OC(=O)C=C)c1 [(10-1)] | higher than the refractive index of the compound (11-1) |  |
| 1.29 g/mL | 20 wt % |  | 1.73 | C=CC(=O)Oc1cc(CCn2c3ccc4ccccc4c3c3c4ccccc4ccc32)cc(OC(=O)C=C)c1 [(10-2)] | higher than the refractive index of the compound (11-1) |  |
| 1.22 g/mL |  |  | 1.72 | C=CC(=O)OCC(Cn1c2ccc3ccccc3c2c2c3ccccc3ccc21)OC(=O)C=C (centres unmarked) [(10-4)] | higher than the refractive index of the compound (11-1) |  |
| 1.26 g/mL |  | 19 wt % | 1.72 | C=C(C)C(=O)OCC(Cn1c2ccc3ccccc3c2c2c3ccccc3ccc21)OC(=O)C(=C)C (centres unmarked) [(10-5)] | higher than the refractive index of the compound (11-1) |  |
| 1.3 g/mL | 18 wt % |  | 1.74 | C=CC(=O)OCCn1c2ccccc2c2c3ccccc3ccc21 [(10-8)] | higher than the refractive index of the compound (11-1) |  |
| 1.31 g/mL | 5 wt % | 13 wt % | 1.74 | C=CC(=O)OCCn1c2ccccc2c2ccc3ccccc3c21 [(10-9)] | higher than the refractive index of the compound (11-1) |  |
| 1.21 g/mL | 44 wt % |  | 1.68 | C=CC(=O)OCCn1c2ccccc2c2ccccc21 [(11-1), acrylic acid 2-(9H-carbazol-9-yl) ethyl, reference compound] |  |  |

The remaining lines, values behind:

| Compound | Density [2] | Solubility Acetone [3] | Solubility Chloroform [3] | Refractive index [1] | Refractive index compared with compound (11-1) according to Test Example 15 [1] | Refractive index [4] |
| --- | --- | --- | --- | --- | --- | --- |
| C=CC(=O)Oc1cc(OC(=O)C=C)cc(-n2c3ccc4ccccc4c3c3c4ccccc4ccc32)c1 [(6-8)] | 1.31 g/mL | 3 wt % |  |  | higher than the refractive index of the compound (11-1) |  |
| C=CC(=O)OCCOc1cc(Cn2c3ccc4ccccc4c3c3c4ccccc4ccc32)cc(OCCOC(=O)C=C)c1 [(10-3)] | 1.29 g/mL |  |  | 1.71 | higher than the refractive index of the compound (11-1) |  |
| C=CC(=O)OCCOCC(Cn1c2ccc3ccccc3c2c2c3ccccc3ccc21)OCCOC(=O)C=C (centres unmarked) [(10-6)] |  |  |  |  | higher than the refractive index of the compound (11-1) |  |
| C=C(C)C(=O)OCCOCC(Cn1c2ccc3ccccc3c2c2c3ccccc3ccc21)OCCOC(=O)C(=C)C (centres unmarked) [(10-7)] |  |  |  |  | higher than the refractive index of the compound (11-1) |  |
| C=CC(=O)OCCOc1cc(OCCOC(=O)C=C)cc(-n2c3ccc4ccccc4c3c3c4ccccc4ccc32)c1 [(10-10)] | 1.27 g/mL |  |  |  | higher than the refractive index of the compound (11-1) |  |
| C=CC(=O)OCCCCOc1cc(OCCCCOC(=O)C=C)cc(-n2c3ccc4ccccc4c3c3c4ccccc4ccc32)c1 [(10-11)] |  |  |  |  | higher than the refractive index of the compound (11-1) |  |
| C=CC(=O)OCCOc1cc(OCCOC(=O)C=C)cc(-n2c3ccccc3c3c4ccccc4ccc32)c1 [(10-12)] | 1.26 g/mL |  |  | 1.69 | higher than the refractive index of the compound (11-1) |  |
| bisphenoxyethanol fluorene diacrylate [EA-0200] |  |  |  |  |  | 1.62 |
